{
  "source": "ChEMBL document CHEMBL5696442",
  "about": "“Discovery of type II inhibitors of TGFβ-activated kinase 1 (TAK1) and mitogen-activated protein kinase kinase kinase kinase 2 (MAP4K2)” (J Med Chem, 2015)",
  "key": {"[1]": {"target": "T1, Mitogen-activated protein kinase kinase kinase 5 (Homo sapiens) (UniProt Q99683)", "T1 sequence (whole entry)": "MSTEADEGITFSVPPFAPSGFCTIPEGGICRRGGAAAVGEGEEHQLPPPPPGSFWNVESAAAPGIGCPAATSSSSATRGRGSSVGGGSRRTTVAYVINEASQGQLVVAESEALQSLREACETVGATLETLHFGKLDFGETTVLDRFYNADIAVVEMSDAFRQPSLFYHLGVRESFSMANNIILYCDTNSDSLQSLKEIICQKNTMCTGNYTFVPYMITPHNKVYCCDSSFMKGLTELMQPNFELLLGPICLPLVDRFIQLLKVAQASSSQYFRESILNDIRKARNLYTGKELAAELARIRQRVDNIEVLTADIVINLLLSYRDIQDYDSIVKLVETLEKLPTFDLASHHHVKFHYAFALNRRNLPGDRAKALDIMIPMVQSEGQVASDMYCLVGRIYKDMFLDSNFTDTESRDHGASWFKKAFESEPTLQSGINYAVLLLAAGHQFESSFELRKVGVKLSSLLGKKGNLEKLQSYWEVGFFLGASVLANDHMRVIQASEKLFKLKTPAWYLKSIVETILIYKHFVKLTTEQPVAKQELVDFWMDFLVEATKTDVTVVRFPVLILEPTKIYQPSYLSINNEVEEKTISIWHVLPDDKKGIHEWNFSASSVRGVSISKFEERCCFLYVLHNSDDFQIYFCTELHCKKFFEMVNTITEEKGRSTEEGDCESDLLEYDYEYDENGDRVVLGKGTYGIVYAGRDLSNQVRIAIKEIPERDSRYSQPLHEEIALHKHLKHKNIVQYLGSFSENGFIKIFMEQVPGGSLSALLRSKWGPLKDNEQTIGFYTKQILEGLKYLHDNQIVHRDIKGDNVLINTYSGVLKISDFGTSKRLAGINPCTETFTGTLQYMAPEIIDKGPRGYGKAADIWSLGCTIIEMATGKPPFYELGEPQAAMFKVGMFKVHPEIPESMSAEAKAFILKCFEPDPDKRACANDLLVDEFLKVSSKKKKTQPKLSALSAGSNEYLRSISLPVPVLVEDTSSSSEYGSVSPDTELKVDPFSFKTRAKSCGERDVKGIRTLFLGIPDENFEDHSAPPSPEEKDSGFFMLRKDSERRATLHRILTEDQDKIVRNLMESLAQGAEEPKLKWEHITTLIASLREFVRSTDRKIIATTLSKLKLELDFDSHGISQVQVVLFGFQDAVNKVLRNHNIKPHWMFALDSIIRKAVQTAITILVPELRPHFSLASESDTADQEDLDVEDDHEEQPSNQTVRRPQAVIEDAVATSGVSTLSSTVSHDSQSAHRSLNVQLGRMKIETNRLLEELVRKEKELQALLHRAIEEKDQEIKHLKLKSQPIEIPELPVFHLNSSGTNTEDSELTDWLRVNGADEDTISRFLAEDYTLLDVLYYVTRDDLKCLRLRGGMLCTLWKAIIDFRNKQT", "experiment": "Inhibition of ASK1 (unknown origin) at 10 uM by Ambit Kinomescan binding assay"}, "[2]": {"target": "Dual specificity mitogen-activated protein kinase kinase 1 (Homo sapiens) (UniProt Q02750)", "experiment": "Inhibition of MEK1 (unknown origin) at 10 uM by Ambit Kinomescan binding assay"}, "[3]": {"target": "3-phosphoinositide-dependent protein kinase 1 (Homo sapiens) (UniProt O15530)", "experiment": "Inhibition of PDPK1 (unknown origin) at 10 uM by Ambit Kinomescan binding assay"}, "[4]": {"target": "Rho-associated protein kinase (Homo sapiens) (UniProt O75116+Q13464)", "sequence (O75116 whole entry, looked up)": "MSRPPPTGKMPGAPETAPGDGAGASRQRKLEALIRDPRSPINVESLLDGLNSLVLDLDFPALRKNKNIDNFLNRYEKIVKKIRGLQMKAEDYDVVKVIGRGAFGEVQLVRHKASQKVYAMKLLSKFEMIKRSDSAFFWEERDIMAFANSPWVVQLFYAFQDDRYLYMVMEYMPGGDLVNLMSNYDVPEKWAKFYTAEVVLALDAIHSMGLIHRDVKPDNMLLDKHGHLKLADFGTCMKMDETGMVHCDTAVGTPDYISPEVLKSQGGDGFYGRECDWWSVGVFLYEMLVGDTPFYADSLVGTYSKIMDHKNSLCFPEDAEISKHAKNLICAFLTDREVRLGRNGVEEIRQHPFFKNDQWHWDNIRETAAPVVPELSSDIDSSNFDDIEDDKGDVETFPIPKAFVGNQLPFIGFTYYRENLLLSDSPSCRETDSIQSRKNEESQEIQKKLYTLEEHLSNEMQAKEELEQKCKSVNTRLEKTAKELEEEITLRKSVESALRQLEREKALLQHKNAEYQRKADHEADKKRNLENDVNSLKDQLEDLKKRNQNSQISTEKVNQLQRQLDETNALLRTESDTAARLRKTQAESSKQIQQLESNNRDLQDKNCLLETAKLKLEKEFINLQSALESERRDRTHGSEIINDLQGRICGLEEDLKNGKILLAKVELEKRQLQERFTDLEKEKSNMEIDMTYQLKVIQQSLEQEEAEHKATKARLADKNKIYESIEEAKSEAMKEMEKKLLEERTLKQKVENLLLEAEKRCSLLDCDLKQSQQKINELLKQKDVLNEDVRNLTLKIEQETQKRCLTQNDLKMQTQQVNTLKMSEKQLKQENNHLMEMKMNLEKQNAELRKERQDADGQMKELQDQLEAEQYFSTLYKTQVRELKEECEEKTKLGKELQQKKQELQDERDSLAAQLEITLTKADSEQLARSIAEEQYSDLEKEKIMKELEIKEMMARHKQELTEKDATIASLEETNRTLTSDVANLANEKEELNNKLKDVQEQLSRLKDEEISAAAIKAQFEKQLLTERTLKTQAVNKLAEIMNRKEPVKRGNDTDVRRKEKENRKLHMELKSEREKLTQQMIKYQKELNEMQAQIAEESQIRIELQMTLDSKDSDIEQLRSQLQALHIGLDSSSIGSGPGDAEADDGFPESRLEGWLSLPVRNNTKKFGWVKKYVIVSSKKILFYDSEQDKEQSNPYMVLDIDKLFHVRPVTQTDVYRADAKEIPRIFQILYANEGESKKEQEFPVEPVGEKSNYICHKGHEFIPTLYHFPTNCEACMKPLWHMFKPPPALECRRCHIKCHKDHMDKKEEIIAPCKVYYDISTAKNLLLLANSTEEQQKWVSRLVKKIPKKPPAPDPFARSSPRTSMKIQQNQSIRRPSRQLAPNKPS", "sequence (Q13464 whole entry, looked up)": "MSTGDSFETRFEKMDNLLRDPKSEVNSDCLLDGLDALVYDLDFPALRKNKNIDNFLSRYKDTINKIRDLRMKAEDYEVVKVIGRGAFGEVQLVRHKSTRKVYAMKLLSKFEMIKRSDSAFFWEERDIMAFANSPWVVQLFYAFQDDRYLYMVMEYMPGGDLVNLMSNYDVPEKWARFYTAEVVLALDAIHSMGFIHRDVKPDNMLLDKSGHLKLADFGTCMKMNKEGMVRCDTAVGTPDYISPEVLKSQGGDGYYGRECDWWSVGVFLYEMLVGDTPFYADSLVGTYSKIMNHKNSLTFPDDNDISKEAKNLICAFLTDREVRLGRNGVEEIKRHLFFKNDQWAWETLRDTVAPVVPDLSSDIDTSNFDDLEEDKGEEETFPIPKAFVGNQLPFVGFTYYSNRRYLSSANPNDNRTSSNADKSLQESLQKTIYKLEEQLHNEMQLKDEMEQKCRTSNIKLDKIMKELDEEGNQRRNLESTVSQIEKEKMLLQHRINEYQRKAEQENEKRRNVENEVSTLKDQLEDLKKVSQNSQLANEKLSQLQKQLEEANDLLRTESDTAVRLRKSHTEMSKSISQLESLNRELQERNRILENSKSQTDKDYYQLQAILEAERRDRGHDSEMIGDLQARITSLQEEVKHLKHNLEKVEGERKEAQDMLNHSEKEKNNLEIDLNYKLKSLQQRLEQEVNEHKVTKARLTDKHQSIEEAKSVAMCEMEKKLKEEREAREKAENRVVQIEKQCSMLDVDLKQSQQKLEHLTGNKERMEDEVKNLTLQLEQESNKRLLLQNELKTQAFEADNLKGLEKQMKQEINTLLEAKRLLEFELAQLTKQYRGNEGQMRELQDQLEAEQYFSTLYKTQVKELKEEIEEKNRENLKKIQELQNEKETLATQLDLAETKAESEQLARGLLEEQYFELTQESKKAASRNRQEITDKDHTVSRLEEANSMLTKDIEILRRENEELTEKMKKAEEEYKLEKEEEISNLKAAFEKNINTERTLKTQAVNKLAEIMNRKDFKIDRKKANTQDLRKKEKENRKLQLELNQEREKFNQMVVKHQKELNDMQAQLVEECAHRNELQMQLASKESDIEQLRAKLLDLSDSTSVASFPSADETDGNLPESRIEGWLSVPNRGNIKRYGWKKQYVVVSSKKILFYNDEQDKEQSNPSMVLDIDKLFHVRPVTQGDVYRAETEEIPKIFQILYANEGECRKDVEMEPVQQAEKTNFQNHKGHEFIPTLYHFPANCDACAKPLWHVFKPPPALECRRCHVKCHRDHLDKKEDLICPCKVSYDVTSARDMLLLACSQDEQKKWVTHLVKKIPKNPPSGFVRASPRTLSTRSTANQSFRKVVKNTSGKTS", "experiment": "Inhibition of ROCK1/2 K2 labeling site in human Huh-7 cells at 1 uM by KiNativ Profiling analysis relative to control", "type": "cell-based"}, "[5]": {"target": "MAP kinase-activated protein kinase 2 (Homo sapiens) (UniProt P49137)", "sequence (P49137 whole entry, looked up)": "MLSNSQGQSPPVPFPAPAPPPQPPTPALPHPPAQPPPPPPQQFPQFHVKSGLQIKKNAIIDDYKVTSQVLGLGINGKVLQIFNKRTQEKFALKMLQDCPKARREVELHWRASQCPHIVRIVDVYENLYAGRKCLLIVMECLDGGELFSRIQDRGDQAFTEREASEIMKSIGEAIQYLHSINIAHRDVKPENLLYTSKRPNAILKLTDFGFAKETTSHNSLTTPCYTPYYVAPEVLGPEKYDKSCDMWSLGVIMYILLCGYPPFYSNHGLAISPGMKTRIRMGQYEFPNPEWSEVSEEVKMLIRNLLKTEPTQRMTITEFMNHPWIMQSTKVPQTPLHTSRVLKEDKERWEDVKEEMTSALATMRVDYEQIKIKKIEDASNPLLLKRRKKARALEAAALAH", "experiment": "Inhibition of MAPKAPK2 (unknown origin) at 1 uM by Ambit Kinomescan binding assay relative to control"}, "[6]": {"target": "T2, Dual specificity mitogen-activated protein kinase kinase 7 (Homo sapiens) (UniProt O14733)", "T2 sequence (whole entry)": "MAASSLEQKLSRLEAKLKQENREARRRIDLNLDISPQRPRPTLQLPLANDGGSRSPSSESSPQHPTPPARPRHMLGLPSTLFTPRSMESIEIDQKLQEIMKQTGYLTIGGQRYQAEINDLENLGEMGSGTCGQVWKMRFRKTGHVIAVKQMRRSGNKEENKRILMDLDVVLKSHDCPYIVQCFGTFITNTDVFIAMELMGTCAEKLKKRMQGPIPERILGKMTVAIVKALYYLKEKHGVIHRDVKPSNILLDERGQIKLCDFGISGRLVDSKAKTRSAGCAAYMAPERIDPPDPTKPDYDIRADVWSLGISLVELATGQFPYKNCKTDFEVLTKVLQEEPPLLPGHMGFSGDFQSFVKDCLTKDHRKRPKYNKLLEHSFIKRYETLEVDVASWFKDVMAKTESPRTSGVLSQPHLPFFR", "experiment": "Inhibition of MKK7 (unknown origin) at 1 uM by Ambit Kinomescan binding assay relative to control"}, "[7]": {"target": "Serine/threonine-protein kinase MARK1 (Homo sapiens) (UniProt Q9P0L2)", "sequence (Q9P0L2 whole entry, looked up)": "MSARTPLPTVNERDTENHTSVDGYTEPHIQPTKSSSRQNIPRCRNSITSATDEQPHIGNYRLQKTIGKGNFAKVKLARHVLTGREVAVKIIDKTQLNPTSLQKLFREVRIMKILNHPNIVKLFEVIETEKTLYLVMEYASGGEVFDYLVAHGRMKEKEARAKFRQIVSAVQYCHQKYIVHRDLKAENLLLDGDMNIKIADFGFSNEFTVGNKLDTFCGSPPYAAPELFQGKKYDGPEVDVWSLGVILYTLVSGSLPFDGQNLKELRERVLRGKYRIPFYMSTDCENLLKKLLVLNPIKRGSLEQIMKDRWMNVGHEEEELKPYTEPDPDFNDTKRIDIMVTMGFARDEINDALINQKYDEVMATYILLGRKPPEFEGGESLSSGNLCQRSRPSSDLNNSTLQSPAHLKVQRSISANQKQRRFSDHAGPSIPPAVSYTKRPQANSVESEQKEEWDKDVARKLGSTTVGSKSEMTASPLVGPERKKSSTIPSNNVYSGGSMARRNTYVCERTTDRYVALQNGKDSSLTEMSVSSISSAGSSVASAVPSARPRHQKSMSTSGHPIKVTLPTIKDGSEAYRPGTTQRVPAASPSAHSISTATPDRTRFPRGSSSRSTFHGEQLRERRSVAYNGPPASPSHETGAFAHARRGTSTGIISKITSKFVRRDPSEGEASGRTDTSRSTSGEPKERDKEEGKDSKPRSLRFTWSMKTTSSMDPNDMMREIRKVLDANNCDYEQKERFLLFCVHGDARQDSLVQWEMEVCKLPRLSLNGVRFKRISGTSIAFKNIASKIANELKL", "experiment": "Inhibition of MARK1 Lys2 labeling site in human A-375 cells at 5 uM by KiNativ Profiling analysis relative to control", "type": "cell-based"}, "[8]": {"target": "T3, EKC/KEOPS complex subunit TP53RK (Homo sapiens) (UniProt Q96S44)", "T3 sequence (whole entry)": "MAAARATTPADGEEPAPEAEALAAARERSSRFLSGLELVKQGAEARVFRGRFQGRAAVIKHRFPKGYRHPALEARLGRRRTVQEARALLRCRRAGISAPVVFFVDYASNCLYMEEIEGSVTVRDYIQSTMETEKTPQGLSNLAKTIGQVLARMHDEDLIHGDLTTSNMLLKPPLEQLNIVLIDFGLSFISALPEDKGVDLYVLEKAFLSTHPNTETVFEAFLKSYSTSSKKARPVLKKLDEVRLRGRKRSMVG", "experiment": "Inhibition of PRPK ATP Loop labeling site in human A-375 cells at 0.05 uM by KiNativ Profiling analysis relative to control", "type": "cell-based"}, "[9]": {"target": "Serine/threonine-protein kinase 17A (Homo sapiens) (UniProt Q9UEE5)", "experiment": "Inhibition of DRAK1 (unknown origin) at 1 uM by Ambit Kinomescan binding assay relative to control; values are per cent of control"}, "[10]": {"target": "Cyclin-dependent kinase 1 (Homo sapiens) (UniProt P06493)", "sequence (P06493 whole entry, looked up)": "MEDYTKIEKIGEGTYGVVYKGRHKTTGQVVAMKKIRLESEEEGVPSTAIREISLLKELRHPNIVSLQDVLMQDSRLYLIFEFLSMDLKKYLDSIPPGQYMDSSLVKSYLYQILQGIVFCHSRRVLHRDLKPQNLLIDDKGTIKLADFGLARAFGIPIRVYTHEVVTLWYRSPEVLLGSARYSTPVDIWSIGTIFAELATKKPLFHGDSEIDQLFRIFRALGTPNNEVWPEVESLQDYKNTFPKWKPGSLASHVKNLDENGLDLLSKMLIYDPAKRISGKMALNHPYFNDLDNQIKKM", "experiment": "Inhibition of CDC2 Lys2 labeling site in human Huh-7 cells at 1 uM by KiNativ Profiling analysis relative to control", "type": "cell-based"}, "[11]": {"target": "Mitogen-activated protein kinase 10 (Homo sapiens, UniProt P53779)", "sequence (P53779 whole entry)": "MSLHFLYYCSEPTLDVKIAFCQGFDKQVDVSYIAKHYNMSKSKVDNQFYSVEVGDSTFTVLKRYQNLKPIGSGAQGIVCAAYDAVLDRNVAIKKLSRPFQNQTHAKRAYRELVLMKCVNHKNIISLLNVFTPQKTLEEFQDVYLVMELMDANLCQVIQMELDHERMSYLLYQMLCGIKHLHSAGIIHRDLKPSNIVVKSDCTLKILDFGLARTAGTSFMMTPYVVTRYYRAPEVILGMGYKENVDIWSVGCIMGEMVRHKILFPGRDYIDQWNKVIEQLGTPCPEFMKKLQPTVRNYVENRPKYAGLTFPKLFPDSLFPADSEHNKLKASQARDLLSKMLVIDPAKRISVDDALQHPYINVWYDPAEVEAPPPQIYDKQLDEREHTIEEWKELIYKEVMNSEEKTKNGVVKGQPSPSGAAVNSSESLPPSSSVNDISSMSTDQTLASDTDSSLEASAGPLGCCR", "experiment": "Inhibition of JNK3 Lys2 labeling site in human Huh-7 cells at 1 uM by KiNativ Profiling analysis relative to control", "type": "cell-based"}},
  "note": "Active and inactive are the calls of the source. No cut-off for these calls is given here.",
  "data": [
    {"smiles": "CCN1CCN(Cc2ccc(NC(=O)c3ccc(C)c(Oc4ccnc5[nH]ccc45)c3)cc2C(F)(F)F)CC1", "values": [
      {"measurement": "inhibition", "setting": "[1]", "result": "inactive"},
      {"measurement": "inhibition", "setting": "[2]", "result": "inactive"},
      {"measurement": "inhibition", "setting": "[3]", "result": "inactive"},
      {"measurement": "inhibition", "setting": "[4]", "result": 13.7, "unit": "%"}
    ]},
    {"smiles": "CCN1CCN(Cc2ccc(NC(=O)c3ccc(C)c(/C=C/c4cnc5[nH]ccc5c4OC)c3)cc2C(F)(F)F)CC1", "values": [
      {"measurement": "inhibition", "setting": "[5]", "result": 100, "unit": "%"},
      {"measurement": "inhibition", "setting": "[6]", "result": 39, "unit": "%"},
      {"measurement": "inhibition", "setting": "[7]", "result": 13, "unit": "%"},
      {"measurement": "inhibition", "setting": "[8]", "result": -1.5, "unit": "%"},
      {"measurement": "residual activity", "setting": "[9]", "result": 52, "unit": "%"}
    ]},
    {"smiles": "CNc1cc(Oc2cc(C(=O)Nc3cc(N4CCN(C)CC4)cc(C(F)(F)F)c3)ccc2C)ncn1", "values": [
      {"measurement": "inhibition", "setting": "[10]", "result": 5, "unit": "%"},
      {"measurement": "inhibition", "setting": "[11]", "result": 14.5, "unit": "%"}
    ]}
  ]
}
